Assay results from the supplement of paper PMC10307832.

Columns and labels:
Assay in all cases: relative viability (nuclei count vs DMSO), 5 days (fraction); higher = more cells survive
ChaGo-K-1 = test system: ChaGo-K-1
Summary of the method: (§1)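 Cells from lung cancer lines were seeded into 1536-well plates and, one day later, dosed by pin tool. Treatments were either a single drug or a fixed dose of an anchor drug with five library-drug doses (not always all listed) in √10 steps. After 5 days, nuclei were stained in a one-step fixation (final 0.05% Triton X-100, 1% formaldehyde, 1 ug/ml Hoechst) and counted on 4× images, and relative viability is the treated-to-vehicle nuclei ratio, as the median of duplicate plates.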

NCI-H1793 = test system: NCI-H1793
Summary of the method: as §1

LCLC-103H = test system: LCLC-103H
Summary of the method: as §1

NCI-H2170 = test system: NCI-H2170
Summary of the method: as §1

NCI-H460 = test system: NCI-H460
Summary of the method: as §1

HCC-44 = test system: HCC-44
Summary of the method: as §1

NCI-H650 = test system: NCI-H650
Summary of the method: as §1

NCI-H727 = test system: NCI-H727
Summary of the method: as §1

NCI-H2347 = test system: NCI-H2347
Summary of the method: as §1

NCI-H441 = test system: NCI-H441
Summary of the method: as §1

EPLC-272H = test system: EPLC-272H
Summary of the method: as §1

NCI-H2405 = test system: NCI-H2405
Summary of the method: as §1

HOP-62 = test system: HOP-62
Summary of the method: as §1

NCI-H1437 = test system: NCI-H1437
Summary of the method: as §1

NCI-H23 = test system: NCI-H23
Summary of the method: as §1

NCI-H647 = test system: NCI-H647
Summary of the method: as §1

NCI-H2126 = test system: NCI-H2126
Summary of the method: as §1

EMC-BAC-2 = test system: EMC-BAC-2
Summary of the method: as §1

LOU-NH91 = test system: LOU-NH91
Summary of the method: as §1

Compound `O=C(O)CCCCC(CCSCc1ccccc1)SCc1ccccc1` (stereo not given) [CPI-613] + NC(=O)Nc1cc(-c2cccc(F)c2)sc1C(=O)N[C@H]1CCCNC1 [AZD7762] (partner 0.2 µM) has a relative viability (ChaGo-K-1; first compound 5 µM) of 0.827, a relative viability (ChaGo-K-1; first compound 15.81 µM) of 0.778 and a relative viability (ChaGo-K-1; first compound 50 µM) of 0.85. It also gave a relative viability (ChaGo-K-1; first compound 158.11 µM) of 0.536, a relative viability (ChaGo-K-1; first compound 500 µM) of 0.436 and a relative viability (NCI-H1793; first compound 5 µM) of 0.447. It also gave a relative viability (NCI-H1793; first compound 15.81 µM) of 0.367, a relative viability (NCI-H1793; first compound 50 µM) of 0.372 and a relative viability (NCI-H1793; first compound 158.11 µM) of 0.11. The relative viability (NCI-H1793; first compound 500 µM) was 0.0077, the relative viability (LCLC-103H; first compound 5 µM) was 0.738 and the relative viability (LCLC-103H; first compound 15.81 µM) was 0.764. The relative viability (LCLC-103H; first compound 50 µM) was 0.755, the relative viability (LCLC-103H; first compound 158.11 µM) was 0.65 and the relative viability (LCLC-103H; first compound 500 µM) was 0.501. It also gave a relative viability (NCI-H2170; first compound 5 µM) of 0.878, a relative viability (NCI-H2170; first compound 15.81 µM) of 0.826 and a relative viability (NCI-H2170; first compound 50 µM) of 0.865. For the same compound, the relative viability (NCI-H2170; first compound 158.11 µM) was 0.607, the relative viability (NCI-H2170; first compound 500 µM) was 0.231 and the relative viability (NCI-H460; first compound 5 µM) was 0.633. For the same compound, the relative viability (NCI-H460; first compound 15.81 µM) was 0.529, the relative viability (NCI-H460; first compound 50 µM) was 0.613 and the relative viability (NCI-H460; first compound 158.11 µM) was 0.418. The relative viability (NCI-H460; first compound 500 µM) was 0.291, the relative viability (HCC-44; first compound 5 µM) was 1.03 and the relative viability (HCC-44; first compound 15.81 µM) was 0.966. It also gave a relative viability (HCC-44; first compound 50 µM) of 1.01, a relative viability (HCC-44; first compound 158.11 µM) of 0.967 and a relative viability (HCC-44; first compound 500 µM) of 0.66. It also gave a relative viability (NCI-H650; first compound 5 µM) of 1.01, a relative viability (NCI-H650; first compound 15.81 µM) of 0.925 and a relative viability (NCI-H650; first compound 50 µM) of 1.03. The relative viability (NCI-H650; first compound 158.11 µM) was 0.49, the relative viability (NCI-H650; first compound 500 µM) was 0.655 and the relative viability (NCI-H727; first compound 5 µM) was 0.617. For the same compound, the relative viability (NCI-H727; first compound 15.81 µM) was 0.547, the relative viability (NCI-H727; first compound 50 µM) was 0.669 and the relative viability (NCI-H727; first compound 158.11 µM) was 0.555. It also gave a relative viability (NCI-H727; first compound 500 µM) of 0.561, a relative viability (NCI-H2347; first compound 5 µM) of 0.735 and a relative viability (NCI-H2347; first compound 15.81 µM) of 0.787. The relative viability (NCI-H2347; first compound 50 µM) was 0.715, the relative viability (NCI-H2347; first compound 158.11 µM) was 0.718 and the relative viability (NCI-H2347; first compound 500 µM) was 0.435. It also gave a relative viability (NCI-H441; first compound 5 µM) of 1.09, a relative viability (NCI-H441; first compound 15.81 µM) of 0.803 and a relative viability (NCI-H441; first compound 50 µM) of 1.39. For the same compound, the relative viability (NCI-H441; first compound 158.11 µM) was 0.788, the relative viability (NCI-H441; first compound 500 µM) was 0.0052 and the relative viability (EPLC-272H; first compound 5 µM) was 0.209. It also gave a relative viability (EPLC-272H; first compound 15.81 µM) of 0.302, a relative viability (EPLC-272H; first compound 50 µM) of 0.189 and a relative viability (EPLC-272H; first compound 158.11 µM) of 0.143. It also gave a relative viability (EPLC-272H; first compound 500 µM) of 0.3, a relative viability (NCI-H2405; first compound 5 µM) of 0.755 and a relative viability (NCI-H2405; first compound 15.81 µM) of 0.63. For the same compound, the relative viability (NCI-H2405; first compound 50 µM) was 0.736, the relative viability (NCI-H2405; first compound 158.11 µM) was 0.557 and the relative viability (NCI-H2405; first compound 500 µM) was 0.235. The relative viability (HOP-62; first compound 5 µM) was 0.703, the relative viability (HOP-62; first compound 15.81 µM) was 0.398 and the relative viability (HOP-62; first compound 50 µM) was 0.649. For the same compound, the relative viability (HOP-62; first compound 158.11 µM) was 0.235, the relative viability (HOP-62; first compound 500 µM) was 0.216 and the relative viability (NCI-H1437; first compound 5 µM) was 1.11. For the same compound, the relative viability (NCI-H1437; first compound 15.81 µM) was 1.13, the relative viability (NCI-H1437; first compound 50 µM) was 1.08 and the relative viability (NCI-H1437; first compound 158.11 µM) was 0.604. For the same compound, the relative viability (NCI-H1437; first compound 500 µM) was 0.855, the relative viability (NCI-H23; first compound 5 µM) was 0.212 and the relative viability (NCI-H23; first compound 15.81 µM) was 0.274. It also gave a relative viability (NCI-H23; first compound 50 µM) of 0.218, a relative viability (NCI-H23; first compound 158.11 µM) of 0.151 and a relative viability (NCI-H23; first compound 500 µM) of 0.0026. It also gave a relative viability (NCI-H647; first compound 5 µM) of 0.502, a relative viability (NCI-H647; first compound 15.81 µM) of 0.32 and a relative viability (NCI-H647; first compound 50 µM) of 0.406. For the same compound, the relative viability (NCI-H647; first compound 158.11 µM) was 0.282, the relative viability (NCI-H647; first compound 500 µM) was 0.343 and the relative viability (NCI-H2126; first compound 5 µM) was 0.935. For the same compound, the relative viability (NCI-H2126; first compound 15.81 µM) was 0.966, the relative viability (NCI-H2126; first compound 50 µM) was 0.991 and the relative viability (NCI-H2126; first compound 158.11 µM) was 0.348. For the same compound, the relative viability (NCI-H2126; first compound 500 µM) was 0.788, the relative viability (EMC-BAC-2; first compound 5 µM) was 1.1 and the relative viability (EMC-BAC-2; first compound 15.81 µM) was 1.05. For the same compound, the relative viability (EMC-BAC-2; first compound 50 µM) was 1.14, the relative viability (EMC-BAC-2; first compound 158.11 µM) was 0.902 and the relative viability (EMC-BAC-2; first compound 500 µM) was 0.529. For the same compound, the relative viability (LOU-NH91; first compound 5 µM) was 0.74, the relative viability (LOU-NH91; first compound 15.81 µM) was 0.7 and the relative viability (LOU-NH91; first compound 50 µM) was 0.753. The relative viability (LOU-NH91; first compound 158.11 µM) was 0.633 and the relative viability (LOU-NH91; first compound 500 µM) was 0.241.
